Our source for the cytotoxicity values is ChEMBL document CHEMBL3507680, “University of Dundee, Gates Library screen for HepG2 cell viability”.

SMILES strings stand for the structures.

This series can be described thus: Human HepG2 cell viability assay in 384 well format. Details: dose 125 nL, time 70.5 hour; concentration not given beside the values. Type of series: toxicity, cell-based. Particulars: HepG2 cells, read-out: Inhibition.

As for `O=C(c1ccc(Cl)cc1)N1CCC(N2CCCNC2=O)CC1`, the cytotoxicity at 70.5 h is -6.78%.

Consider `O=C(c1ccc(Cl)cc1)N1CCC(N2CCCCC2=O)CC1`, for which the cytotoxicity at 70.5 h was -7.46%.

On to `O=C(c1ccc(Cl)s1)N1CCC2(CNS(=O)(=O)c3cnccc3O2)C1` (stereo not drawn), for which the cytotoxicity at 70.5 h stood at 19.5%.

Regarding `O=C(c1cccnc1)N1CCC2(CNS(=O)(=O)c3cnccc3O2)C1` (stereo not drawn), the cytotoxicity at 70.5 h came to 17.8%.

`CC(C)NC(=O)N1CCC(c2nnc3n2CCNC3)CC1`: the cytotoxicity at 70.5 h was 16.3%.

`O=S1(=O)NCC2(CCCN(Cc3ccccn3)C2)Oc2ncccc21` (stereo not drawn): the cytotoxicity at 70.5 h came to 30.8%.

As for `CN1CCC2(Cc3ccccc3CN(C(=O)Cc3cccc(Cl)c3)C2)C1` (stereo not drawn), the cytotoxicity at 70.5 h is 30.2%.

With `CCCC(=O)N1Cc2ccccc2CC2(CCN(C)C2)C1` (stereo not drawn), the cytotoxicity at 70.5 h was found to be 22.5%.

Regarding `O=C1Nc2ccccc2CC12CCCN2Cc1ccc(F)cc1` (stereo not drawn), the cytotoxicity at 70.5 h amounted to 9.33%.

For the molecule `O=C1Nc2ccccc2CC12CCCN2Cc1cccnc1` (stereo not drawn), the cytotoxicity at 70.5 h is -2.78%.

Consider `CC(C)NC(=O)C1CCc2nnc(C(C)(C)C)n21` (stereo not drawn), for which the cytotoxicity at 70.5 h was -5.68%.

As for `CN1CC(=O)N(C2CCNCC2)Cc2c(NC3CCC3)ncnc21`, the cytotoxicity at 70.5 h was -7.06%.

On to `Cc1nc(C(NC(=O)CN(C)C(C)C)c2ccccc2F)no1` (stereo not drawn), for which the cytotoxicity at 70.5 h was -4.07%.

With `COc1cc(Br)c(CNc2ccn(CCC(N)=O)n2)cc1OC`, the cytotoxicity at 70.5 h was -4.79%.

For `Cn1cc(N2CCN(c3ccc(C#N)cc3F)CC2=O)cn1`, the cytotoxicity at 70.5 h is -3.17%.

Take `NC(=O)NC1(C(=O)N2CCc3c(Cl)cccc3C2)CCCCC1`: the cytotoxicity at 70.5 h was 8.62%.

As to `CN(Cc1nc2ccccc2[nH]1)C(=O)CN(C)c1ccccc1`, the cytotoxicity at 70.5 h is -2.68%.

For `NC(=O)NC1CCN(Cc2ccc3c(c2)CCC3)CC1`, the cytotoxicity at 70.5 h is -5.94%.

Consider `CC(C)(C)NC(=O)c1cnc2n1CCCC2`, for which the cytotoxicity at 70.5 h is -6.71%.

In the case of `Cc1ccc(F)c(CNc2ccn(CCC(N)=O)n2)c1`, the cytotoxicity at 70.5 h was found to be 3.53%.

For `CN(Cc1cc(Br)cn1C)C(=O)Cc1cccnc1`, the cytotoxicity at 70.5 h was -9.83%.

For the molecule `COc1ccc2c(c1)CCCC2CC(=O)NCC(=O)O` (stereo not drawn), the cytotoxicity at 70.5 h is -4.55%.

In the case of `Cn1ccc(N2CCCC(NC(=O)c3ccc(Cl)o3)C2=O)n1` (stereo not drawn), the cytotoxicity at 70.5 h is -10.2%.

Turning to `COc1ccc2c(c1)CCCC2CC(=O)NCC(C)(C)C(=O)O` (stereo not drawn), the cytotoxicity at 70.5 h was -10.7%.

For `CCC(C)(CC(=O)OC)NCc1nc(C)no1` (stereo not drawn), the cytotoxicity at 70.5 h stood at 28.3%.

In the case of `CCC(C)(CC(=O)OC)NCc1cc(C)on1` (stereo not drawn), the cytotoxicity at 70.5 h is -11%.

In the case of `CN1CCN(C(=O)C2(S(C)(=O)=O)CCCC2)Cc2ccccc21`, the cytotoxicity at 70.5 h was -13.4%.

With `N#Cc1cccc(NC(=O)N[C@H](CO)Cc2ccc(O)cc2)c1`, the cytotoxicity at 70.5 h is -9.73%.

As for `Cc1cc(N2CCCC2c2cccnc2)nc(C)n1` (stereo not drawn), the cytotoxicity at 70.5 h was 5.57%.

Turning to `CCN1CCN2CCCN(S(=O)(=O)c3ccc(C)cc3C)C2C1=O` (stereo not drawn), the cytotoxicity at 70.5 h is -4.62%.

With `CCN1CCN2CCCN(S(=O)(=O)c3ccc(S(C)(=O)=O)cc3)C2C1=O` (stereo not drawn), the cytotoxicity at 70.5 h was -7.94%.

Take `COCCn1cc(NC(=O)N(CCC(N)=O)Cc2ccccc2)cn1`: the cytotoxicity at 70.5 h is -14.4%.

With `O=C(CS(=O)(=O)Cc1cccc(Br)c1)Nc1cn[nH]c1`, the cytotoxicity at 70.5 h is -2.81%.

Regarding `CCOC1CCN(C(=O)NCc2ccc(C(=O)N(C)C(C)C)cc2)CC1`, the cytotoxicity at 70.5 h is -18.5%.

`Cc1cccc(S(=O)(=O)NCc2cccc(CS(C)(=O)=O)c2)c1`: the cytotoxicity at 70.5 h came out at 9.39%.

Consider `CCNC(=O)C(C)NC(=O)Nc1ccccc1SC(F)(F)F` (stereo not drawn), for which the cytotoxicity at 70.5 h was -10.8%.

For `CCNC(=O)C(C)NC(=O)Nc1ccccc1SCC` (stereo not drawn), the cytotoxicity at 70.5 h was -16.9%.

For the molecule `Cc1nc(C(=O)N(C)CC(F)(F)C(F)(F)F)c2ccccn12`, the cytotoxicity at 70.5 h is -13.5%.

`CCn1ccnc1CN1CCN(c2nccc(OC)n2)CC1C` (stereo not drawn): the cytotoxicity at 70.5 h came to 18.6%.

Take `Cn1c(CCCNC(=O)Nc2cn[nH]c2)nc2ccccc21`: the cytotoxicity at 70.5 h was -3.29%.

Turning to `CCc1ccc(CNc2cc(-c3ccoc3C)nn2CCO)o1`, the cytotoxicity at 70.5 h was -18.9%.

As to `CN1CCc2ccc(NCc3cscn3)cc2C1=O`, the cytotoxicity at 70.5 h is 2.5%.

In the case of `CC(C)NC(=O)NC(=O)C(C)N1CCN(C2CCN(C(C)C)CC2)CC1` (stereo not drawn), the cytotoxicity at 70.5 h is -3.33%.

For the molecule `COCCCC(=O)Nc1cccnc1N1CCCCC1`, the cytotoxicity at 70.5 h was -10.4%.

In the case of `CCc1nnc(NC(=O)N(CCOC)Cc2ccc(C)o2)s1`, the cytotoxicity at 70.5 h is 14.4%.

Regarding `COC1CCN(S(=O)(=O)N2CCCC2c2ccco2)CC1` (stereo not drawn), the cytotoxicity at 70.5 h turned out to be 0.386%.

Consider `CCCN(Cc1ccccc1O)C(=O)Nc1cnn(CCOC)c1`, for which the cytotoxicity at 70.5 h was -12.8%.

As for `CC(C)OC(=O)CC(NC(=O)CCn1cccn1)c1ccccc1` (stereo not drawn), the cytotoxicity at 70.5 h came out at 5.59%.

As for `CSC1(CNC(=O)N(C)Cc2ccc(C)s2)CCOCC1`, the cytotoxicity at 70.5 h is 15.5%.

Regarding `CC(NCc1nnc2n1CCCC2)c1nc(Cc2ccccc2)no1` (stereo not drawn), the cytotoxicity at 70.5 h is -8.89%.

Consider `CN(C)C(CNC(=O)OCC(F)(F)F)c1ccsc1` (stereo not drawn), for which the cytotoxicity at 70.5 h is -8.54%.

With `CN(Cc1ccsc1)C(=O)c1nc(N2CCCCC2)ncc1Cl`, the cytotoxicity at 70.5 h was -14.3%.

As to `Cc1noc(C)c1CN(C)C(=O)c1nc(N2CCCC2)ncc1Cl`, the cytotoxicity at 70.5 h is -11.7%.

On to `CS(=O)(=O)NC1CCN(Cc2coc(-c3ccccc3)n2)CC1`, for which the cytotoxicity at 70.5 h was -9.14%.

As to `CCN1CCC(NC(=O)N(C)Cc2csc3ccccc23)CC1`, the cytotoxicity at 70.5 h is -8.41%.

`O=C(Nc1ccc(F)cc1F)NC1(CO)CCOCC1`: the cytotoxicity at 70.5 h is -4.4%.

As for `c1cnn(C2CN(c3nc(-c4ccncc4)nc4c3CCC4)C2)c1`, the cytotoxicity at 70.5 h is -1.27%.

For `CS(=O)(=O)c1ccccc1NC(=O)N[C@@H]1c2ccccc2C[C@@H]1O`, the cytotoxicity at 70.5 h came out at 12.9%.

`CCC(C)c1csc(NC(=O)Cc2csc(-c3nnc[nH]3)n2)n1` (stereo not drawn): the cytotoxicity at 70.5 h is 9.25%.

Consider `CC(C)Oc1ccccc1CNC(=O)N(C)CC(F)F`, for which the cytotoxicity at 70.5 h is -3.01%.

`CN(C)C(CNC(=O)CCNC(=O)OCC(F)(F)F)c1ccsc1` (stereo not drawn): the cytotoxicity at 70.5 h was -0.647%.

As for `CC(NCc1nnc2n1CCCC2)c1nc(C(C)(C)C)no1` (stereo not drawn), the cytotoxicity at 70.5 h is -13.6%.

Take `CSC1(CNC(=O)NCc2sccc2C)CCOCC1`: the cytotoxicity at 70.5 h was found to be 2.45%.

As for `CNC(=O)CCOC(=O)c1cccc(-n2ccc(C(F)(F)F)n2)c1`, the cytotoxicity at 70.5 h worked out at 0.427%.

On to `O=C(c1cc(C2CC2)nc2onc(-c3ccccc3)c12)N1CCOCC1`, for which the cytotoxicity at 70.5 h was 18.5%.

Regarding `COc1cc(Cl)ccc1CNC(=O)N(C)C(C)CS(C)(=O)=O` (stereo not drawn), the cytotoxicity at 70.5 h was -7.57%.

`CCCC(=O)NC1CCCN(c2cncc(Br)c2)C1` (stereo not drawn): the cytotoxicity at 70.5 h is -10.5%.

Turning to `CS(=O)(=O)c1ccccc1N[C@@H]1c2ccccc2C[C@@H]1O`, the cytotoxicity at 70.5 h came out at 21.1%.

For the molecule `Cc1nn2cccnc2c1C(=O)NCc1ccccc1OC1CCC1`, the cytotoxicity at 70.5 h is -4.01%.

For the molecule `c1cc(NCc2ccsc2)cc(-c2nnc[nH]2)c1`, the cytotoxicity at 70.5 h came out at 1.3%.

Regarding `Oc1c(F)cc(CNc2cccc(-c3nnc[nH]3)c2)cc1F`, the cytotoxicity at 70.5 h was -9.32%.

In the case of `COC(=O)C(NC(=O)c1ccc(C)cc1C)c1cccnc1` (stereo not drawn), the cytotoxicity at 70.5 h is -7.04%.

Consider `Cn1c(N)nnc1SCc1c(F)cccc1Br`, for which the cytotoxicity at 70.5 h is -3.61%.

As to `Cn1c(CO)nnc1SCc1c(F)cccc1Br`, the cytotoxicity at 70.5 h was -5.69%.

Regarding `Cc1nn2cccnc2c1C(=O)NCc1ccnc(OCC2CC2)c1`, the cytotoxicity at 70.5 h was -12.1%.

For `Cc1noc(CCNC(=O)C2CSCN2C(=O)C2CCCC2)n1` (stereo not drawn), the cytotoxicity at 70.5 h was -5.54%.

`CC1CCN(c2ccc(C(=O)N3CCCC3c3nncn3C)cn2)CC1` (stereo not drawn): the cytotoxicity at 70.5 h is 8.02%.

Turning to `CC(C)(C)NC(=O)c1cccc(CN2CCS(=O)(=O)CC2)c1`, the cytotoxicity at 70.5 h is -4.97%.

On to `CC(C)c1noc(OCC(=O)N(C)C(C)C)n1`, for which the cytotoxicity at 70.5 h is -12.3%.

As for `CCN(CC)C(=O)COc1nc(C(C)C)no1`, the cytotoxicity at 70.5 h stood at 18.3%.

As for `Cc1nc(CN2CCCN(C(=O)CC(C)n3cccc3)CC2)cs1` (stereo not drawn), the cytotoxicity at 70.5 h was -12.7%.

As for `O=S(=O)(CCN1CCCCC1Cn1cccn1)c1ccccc1` (stereo not drawn), the cytotoxicity at 70.5 h is -28.3%.

For `Cc1cc(C(=O)N(CC2CCCO2)c2ccncc2)c(C)o1` (stereo not drawn), the cytotoxicity at 70.5 h was -9.47%.

Turning to `Cc1nn(CC(C)C)c(C)c1CC(=O)N1CCCC(CNS(C)(=O)=O)C1` (stereo not drawn), the cytotoxicity at 70.5 h was -13.2%.

As to `CC(=O)N(C)C1CCN(C(=O)NCCc2cc(F)ccc2F)CC1`, the cytotoxicity at 70.5 h is -13.7%.

For the molecule `N#Cc1cccnc1N1CCC(OCCc2ccccc2)CC1`, the cytotoxicity at 70.5 h is -9.51%.

For the molecule `Fc1cccnc1N1CCCC(c2nccs2)C1` (stereo not drawn), the cytotoxicity at 70.5 h was -5.3%.

For `CN(Cc1cnn(C)c1)S(=O)(=O)N1CCCCCC1`, the cytotoxicity at 70.5 h was -9.53%.

In the case of `CN(Cc1cnn(C)c1)S(=O)(=O)N1CCc2ccccc2C1`, the cytotoxicity at 70.5 h was 7.8%.

With `CC(=O)NCCC(=O)NCCCOc1c(C)cccc1C`, the cytotoxicity at 70.5 h is -6.31%.

For the molecule `Cc1occc1C(=O)NCC(=O)NCCOc1cccc(Cl)c1`, the cytotoxicity at 70.5 h is -11.3%.

Regarding `COC1CCN(C(=O)c2csc(-c3ccccc3F)n2)CC1`, the cytotoxicity at 70.5 h is -4.85%.

Regarding `NC(=O)C1CCN(CC(=O)NCCc2c(F)cccc2F)CC1`, the cytotoxicity at 70.5 h is -7.99%.

`Cc1cc(N2CCc3c(ncn3C)C2)nc(N)n1`: the cytotoxicity at 70.5 h was -0.513%.

On to `COc1ccccc1CN1CCN(CCN2CCOC2=O)CC1`, for which the cytotoxicity at 70.5 h turned out to be 8.76%.

As to `CCc1nc(CCNC(=O)NC2CCSCC2)cs1`, the cytotoxicity at 70.5 h amounted to 5.18%.

Take `CC(NC(=O)Nc1ccc(S(C)(=O)=O)cc1)c1ccc2c(c1)CC(=O)N2` (stereo not drawn): the cytotoxicity at 70.5 h is -7.73%.

`CS(=O)(=O)NC1CCN(C(=O)c2ccc3ccccc3c2)C1` (stereo not drawn): the cytotoxicity at 70.5 h was 5.82%.

As for `NC(=O)N1CCCN(CC(=O)NCCc2c(F)cccc2F)CC1`, the cytotoxicity at 70.5 h is -6.21%.

Take `O=C(NCC1(O)CCSC1)c1ccoc1` (stereo not drawn): the cytotoxicity at 70.5 h is -5.15%.

Consider `Cc1ccc(C(=O)NCc2ccccc2S(=O)(=O)N(C)CCO)cc1F`, for which the cytotoxicity at 70.5 h is -1.52%.

As to `O=C(CCc1cccs1)NCC1CCCN1c1cccnn1` (stereo not drawn), the cytotoxicity at 70.5 h is 3.16%.

Regarding `CCn1ccnc1CN1CCNCC1C` (stereo not drawn), the cytotoxicity at 70.5 h is -5.16%.
